# Values quoted from earlier work in patent US20260137744A1, “MELATONIN-ENRICHED COMPOSITION OF PISTACIA VERA (PISTACHIO) AND A METHOD OF PREPARATION THEREOF” (Network Nutrition Pty Limited, priority 2024, published 2026).
smiles,measurement,setting,value
COc1ccc2[nH]cc(CCNC(C)=O)c2c1 [melatonin],"peak concentration in the bloodstream, time after oral dosage",after oral dosage,approximately 50 minutes
same,bioavailability,"oral melatonin, average, varies significantly among individuals",around 15%
